# In patent US10807952B2 (Achillion Pharmaceuticals, Inc., priority 2015, dated 2020):
# pIC50: −log10 of the molar value.
# Target: Human Factor D (Homo sapiens (Human), UniProt P00746)
# Experiment: Human Factor D assay (Z-L-Lys-SBzl / DTNB, absorbance at 405 nm)
# Type: biochemical
# Conditions: Table 4; Human Factor D 80 nM, assay of Example 13
# Summary of the method: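 Human serum-purified Factor D (80 nM final) was preincubated with compound for 5 min at room temperature in 50 mM Tris, 1M NaCl, pH 7.5. IC50 came from nonlinear regression of rate versus compound concentration.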
# Human Factor D, sequence (P00746 26-253): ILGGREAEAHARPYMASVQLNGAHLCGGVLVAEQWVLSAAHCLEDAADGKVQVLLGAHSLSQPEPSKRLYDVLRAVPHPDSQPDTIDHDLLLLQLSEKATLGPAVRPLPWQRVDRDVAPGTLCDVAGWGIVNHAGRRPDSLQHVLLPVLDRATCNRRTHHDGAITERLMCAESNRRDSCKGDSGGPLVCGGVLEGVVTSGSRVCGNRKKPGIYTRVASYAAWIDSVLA
row,SMILES,pIC50
1,"CC(=O)c1nn(CC(=O)N2C[C@H](F)C[C@H]2C(=O)Nc2cccc(/C=C/c3nc4c(Cl)cccc4[nH]3)c2F)c2ccccc12 [Compound 104, (2S,4R)-1-(2-(3-acetyl-1H-indazol-1-yl)acetyl)-N-(3-((E)-2-(4-chloro-1H-benzo[d]imidazol-2-yl)vinyl)-2-fluorophenyl)-4-fluoropyrrolidine-2-carboxamide]",> 6.00
2,"Cc1cccc(NC(=O)[C@@H]2CCC(F)CCN2C(=O)Cn2cc(C(N)=O)c3cc(C4=CCCCC4)ccc32)n1 (stereo partly drawn) [Compound 106, 5-(cyclohex-1-en-1-yl)-1-(2-((2S)-5-fluoro-2-((6-methylpyridin-2-yl)carbamoyl)azepan-1-yl)-2-oxoethyl)-1H-indole-3-carboxamide]",< 5.00
3,"Cc1c(Br)c(C(N)=O)nn1CC(=O)N1C[C@H](F)C[C@H]1C(=O)Nc1cccc(Br)n1 [Compound 107, 4-Bromo-1-(2-((2S,4R)-2-((6-bromopyridin-2-yl)carbamoyl)-4-fluoropyrrolidin-1-yl)-2-oxoethyl)-5-methyl-1H-pyrazole-3-carboxamide]",5.00 to 6.00
